For 28 compounds, DC50 and Dmax results are on record in patent US11427548B2 (Arvinas Operations, Inc., priority 2015, dated 2022).

Like-named read-outs stand apart in the source and are kept apart here.

In this assay the target is T1, Androgen Receptor (Homo sapiens, UniProt P10275).
T1 construct: endogenous in cells; host or cells: VCaP cells
T1 sequence (P10275 1-920): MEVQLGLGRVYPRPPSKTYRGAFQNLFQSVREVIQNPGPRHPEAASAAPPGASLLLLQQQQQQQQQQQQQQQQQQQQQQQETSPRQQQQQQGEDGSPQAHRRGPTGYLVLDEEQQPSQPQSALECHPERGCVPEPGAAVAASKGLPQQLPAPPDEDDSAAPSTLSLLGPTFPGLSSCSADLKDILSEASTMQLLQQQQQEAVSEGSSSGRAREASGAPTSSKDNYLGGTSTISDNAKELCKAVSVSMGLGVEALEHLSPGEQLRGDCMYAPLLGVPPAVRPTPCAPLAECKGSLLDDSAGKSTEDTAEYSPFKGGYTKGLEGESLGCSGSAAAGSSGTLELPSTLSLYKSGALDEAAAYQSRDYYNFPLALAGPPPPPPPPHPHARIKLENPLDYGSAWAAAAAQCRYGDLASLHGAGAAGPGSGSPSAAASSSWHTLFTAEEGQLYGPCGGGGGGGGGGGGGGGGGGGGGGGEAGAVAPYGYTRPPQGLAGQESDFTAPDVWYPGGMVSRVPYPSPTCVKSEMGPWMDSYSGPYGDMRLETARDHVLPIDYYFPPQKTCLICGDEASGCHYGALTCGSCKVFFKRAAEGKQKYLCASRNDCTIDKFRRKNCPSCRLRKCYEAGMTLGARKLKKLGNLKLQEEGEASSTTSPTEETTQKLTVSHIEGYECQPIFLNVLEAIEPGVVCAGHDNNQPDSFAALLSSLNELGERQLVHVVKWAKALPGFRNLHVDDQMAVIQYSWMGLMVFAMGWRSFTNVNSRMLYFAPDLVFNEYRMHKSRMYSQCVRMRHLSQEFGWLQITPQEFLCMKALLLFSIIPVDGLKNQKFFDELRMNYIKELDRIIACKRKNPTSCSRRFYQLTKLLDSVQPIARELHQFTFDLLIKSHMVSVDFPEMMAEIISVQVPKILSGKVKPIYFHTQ
The assay is described as follows: Androgen Receptor ELISA assay (PathScan AR ELISA) in VCaP cells: AR degradation, Dmax and DC50. Format: cell-based. In a few lines:
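VCaP cells, 30,000/well, grown ≥3 days in phenol red-free RPMI with 5% charcoal-stripped FBS; compound added in 0.1% DMSO with 0.1 nM R1881, 7 half-log doses, 24 h. Lysate AR quantified by PathScan sandwich ELISA, HRP/TMB read at 450 nm, giving DC50 and Dmax.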

Where [1] appears, read: VCaP cells; Table 34; read-out: VCaP DC50.
The mark [2] stands for this setting: VCaP, VCaP cells; Table 34; read-out: VCaP Dmax (%).
The mark [3] stands for this setting: read-out: VCaP DC50; VCaP cells; Table 34.

By DC50 is commonly meant the concentration giving 50% degradation. For orientation: Dmax means the greatest extent of degradation seen. Regarding `CC(C)(C)[C@H](NC(=O)COCCCCCOCCn1cc(C(=O)N[C@H]2C(C)(C)[C@H](Oc3ccc(C#N)c(Cl)c3)C2(C)C)cn1)C(=O)N1C[C@H](O)C[C@H]1C(=O)NCc1ccc(-c2cncs2)cc1` [Example 339], the half-maximal degradation concentration (DC50) under setting [1] is less than 50 nM. In addition, under setting [2], the Dmax was more than 71%. Turning to `CC(C)(C)[C@H](NC(=O)COCCCOCCCCCOc1ccc(N2C(=S)N(c3ccc(C#N)c(Cl)c3)C(=O)C2(C)C)cc1)C(=O)N1C[C@H](O)C[C@H]1C(=O)NCc1ccc(-c2cnco2)cc1` [Example 345], the greatest degradation seen (Dmax) (VCaP, read-out: VCaP Dmax (%)) was in the range of 51 to 70%. Under setting [3], the DC50 is less than 50 nM. Turning to `CC(C)(C)[C@H](NC(=O)COCCCCOCCCCOc1ccc(N2C(=S)N(c3ccc(C#N)c(Cl)c3)C(=O)C2(C)C)cc1)C(=O)N1C[C@H](O)C[C@H]1C(=O)NCc1ccc(-c2cnco2)cc1` [Example 346], the greatest degradation seen (Dmax) (VCaP, read-out: VCaP Dmax (%)) lay in the range of 51 to 70%. Moreover, the DC50 under setting [3] was less than 50 nM.

As for `CC(C)(C)[C@H](NC(=O)COCCCCOCCn1cc(C(=O)N[C@H]2C(C)(C)[C@H](Oc3ccc(C#N)c(Cl)c3)C2(C)C)cn1)C(=O)N1C[C@H](O)C[C@H]1C(=O)NCc1ccc(-c2cncs2)cc1` [Example 347], the DC50 under setting [1] was less than 50 nM. For the same compound, under setting [2], the Dmax lay in the range of 51 to 70%.

On to `Cc1ncsc1-c1ccc([C@H](C)NC(=O)[C@@H]2C[C@@H](O)CN2C(=O)[C@@H](NC(=O)COCCCOCCCCOc2ccc(N3C(=S)N(c4cnc(C#N)c(C(F)(F)F)c4)C(=O)C3(C)C)cc2)C(C)(C)C)cc1` [Example 365], for which the DC50 under setting [1] is less than 50 nM. In addition, the Dmax under setting [2] was more than 71%. For `Cc1ncsc1-c1ccc(CNC(=O)[C@@H]2C[C@@H](O)CN2C(=O)[C@H](C)NC(=O)COCCCOCCCCOc2ccc(N3C(=S)N(c4ccc(C#N)c(C(F)(F)F)c4)C(=O)C3(C)C)cc2)cc1` [Example 366], the 50% degradation concentration (DC50) under setting [3] is less than 50 nM. Take `CC(C)(C)[C@H](NC(=O)COCCCOCCCCOc1ccc(N2C(=S)N(c3ccc(C#N)c(C(F)(F)F)c3)C(=O)C2(C)C)cc1)C(=O)N1C[C@H](O)C[C@H]1C(=O)NCc1ccc(-c2cnco2)c(F)c1` [Example 367]: the maximal degradation (Dmax) (VCaP, read-out: VCaP Dmax (%)) lay within 51 to 70%. For the same compound, under setting [3], the DC50 is less than 50 nM. Regarding `CC(C)(C)[C@H](NC(=O)COCCCOCCCCOc1ccc(N2C(=S)N(c3cc(Cl)c(C#N)cc3F)C(=O)C2(C)C)cc1F)C(=O)N1C[C@H](O)C[C@H]1C(=O)NCc1ccc(-c2cnco2)cc1` [Example 368], the DC50 under setting [3] was less than 50 nM. On to `CC(C)(C)[C@H](NC(=O)COCCCOCCCCOc1ccc(N2C(=S)N(c3cc(Cl)c(C#N)cc3F)C(=O)C2(C)C)cc1)C(=O)N1C[C@H](O)C[C@H]1C(=O)NCc1ccc(-c2cnco2)cc1` [Example 369], for which the half-maximal degradation concentration (DC50) under setting [3] was less than 50 nM. In the case of `CC(C)(C)[C@H](NC(=O)COCCCOCCCCOc1ccc(N2C(=S)N(c3ccc(C#N)c(C(F)(F)F)c3)C(=O)C2(C)C)cc1)C(=O)N1C[C@H](O)C[C@H]1C(=O)NCc1ccc(-c2ocnc2F)cc1` [Example 370], for the setting “VCaP, read-out: VCaP Dmax (%)”, the Dmax is 26 to 50%. Further, under setting [3], the DC50 is less than 50 nM.

Regarding `CC(C)(C)[C@H](NC(=O)COc1ccc(OCCOc2ccc(N3C(=S)N(c4cnc(C#N)c(C(F)(F)F)c4)C(=O)C3(C)C)cc2)cc1)C(=O)N1C[C@H](O)C[C@H]1C(=O)NCc1ccc(-c2cnco2)cc1` [Example 371], the half-maximal degradation concentration (DC50) under setting [1] is less than 50 nM. In addition, the greatest degradation seen (Dmax) under setting [2] is more than 71%. As for `Cc1ncsc1-c1ccc([C@H](C)NC(=O)[C@@H]2C[C@@H](O)CN2C(=O)[C@@H](NC(=O)COCCCCOCCCCOc2ccc(N3C(=S)N(c4ccc(C#N)c(C(F)(F)F)c4)C(=O)C3(C)C)cc2)C(C)(C)C)cc1` [Example 373], the Dmax (VCaP, read-out: VCaP Dmax (%)) is 51 to 70%. Also, the DC50 under setting [3] is less than 50 nM. For `Cc1ncsc1-c1ccc(CNC(=O)[C@@H]2C[C@@H](O)CN2C(=O)[C@@H](NC(=O)C(C)Oc2ccc(OCCOc3ccc(N4C(=S)N(c5ccc(C#N)c(C(F)(F)F)c5)C(=O)C4(C)C)cc3)cc2)C(C)(C)C)cc1` (stereo partly drawn) [Example 374], in that order: 26 to 50% and less than 50 nM. On to `CC(C)(C)[C@H](NC(=O)COCCCOCCCCOc1ccc(N2C(=S)N(c3ccc(C#N)c(C(F)(F)F)c3)C(=O)C2(C)C)cc1)C(=O)N1C[C@H](O)C[C@H]1C(=O)NCc1ccc(-c2cn[nH]c2)cc1` [Example 376], for which the greatest degradation seen (Dmax) (VCaP, read-out: VCaP Dmax (%)) is 51 to 70%. The 50% degradation concentration (DC50) under setting [3] is less than 50 nM. Consider `Cc1n[nH]cc1-c1ccc(CNC(=O)[C@@H]2C[C@@H](O)CN2C(=O)[C@@H](NC(=O)COCCCOCCCCOc2ccc(N3C(=S)N(c4ccc(C#N)c(C(F)(F)F)c4)C(=O)C3(C)C)cc2)C(C)(C)C)cc1` [Example 377], for which the Dmax (VCaP, read-out: VCaP Dmax (%)) fell in the range of 51 to 70%. Moreover, under setting [3], the DC50 was in the range of 51 to 500 nM. For `Cc1ncsc1-c1ccc(CNC(=O)[C@@H]2C[C@@H](O)CN2C(=O)[C@@H](NC(=O)COc2ccc3cc(COc4ccc(N5C(=S)N(c6ccc(C#N)c(C(F)(F)F)c6)C(=O)C5(C)C)cc4)ccc3c2)C(C)(C)C)cc1` [Example 378], in that order: 51 to 70% and less than 50 nM. Turning to `Cc1ncsc1-c1ccc(CNC(=O)C2C[C@@H](O)CN2C(=O)[C@@H](NC(=O)CN(C)c2ccc(OCCOc3ccc(N4C(=S)N(c5ccc(C#N)c(C(F)(F)F)c5)C(=O)C4(C)C)cc3)cc2)C(C)(C)C)cc1` (stereo partly drawn) [Example 379], the Dmax (VCaP, read-out: VCaP Dmax (%)) lay in the range of 51 to 70%. For the same compound, the DC50 under setting [3] was less than 50 nM. In the same order, the values of `Cc1ncsc1-c1ccc(CNC(=O)[C@H]2C[C@@H](O)CN2C(=O)[C@@H](NC(=O)[C@@H](C)Oc2ccc(OCCOc3ccc(N4C(=S)N(c5ccc(C#N)c(C(F)(F)F)c5)C(=O)C4(C)C)cc3)cc2)C(C)(C)C)cc1` [Example 381] are 26 to 50% and less than 50 nM. On to `Cc1ncsc1-c1ccc(CNC(=O)[C@H]2C[C@@H](O)CN2C(=O)[C@@H](NC(=O)[C@H](C)Oc2ccc(OCCOc3ccc(N4C(=S)N(c5ccc(C#N)c(C(F)(F)F)c5)C(=O)C4(C)C)cc3)cc2)C(C)(C)C)cc1` [Example 382], for which, where the note is “VCaP, read-out: VCaP Dmax (%)”, the Dmax was in the range of 26 to 50%. For the same compound, the DC50 under setting [3] is less than 50 nM. With `Cc1ncoc1-c1ccc(CNC(=O)[C@@H]2C[C@@H](O)CN2C(=O)[C@@H](NC(=O)COCCCCOc2ccc(Oc3ccc(N4C(=S)N(c5cnc(C#N)c(C(F)(F)F)c5)C(=O)C4(C)C)cc3)cc2)C(C)(C)C)cc1` [Example 383], the DC50 under setting [1] is less than 50 nM. For the same compound, the Dmax under setting [2] is more than 71%.

Regarding `Cc1ncsc1-c1ccc(CNC(=O)[C@@H]2C[C@@H](O)CN2C(=O)[C@@H](NC(=O)COCCCCOc2ccc(Oc3ccc(N4C(=S)N(c5cnc(C#N)c(C(F)(F)F)c5)C(=O)C4(C)C)cc3)cc2)C(C)(C)C)cc1` [Example 384], the DC50 under setting [1] is less than 50 nM. Moreover, under setting [2], the Dmax was more than 71%. As for `Cc1ncoc1-c1ccc(CNC(=O)[C@@H]2C[C@@H](O)CN2C(=O)[C@@H](NC(=O)COCCCOc2ccc(Oc3ccc(N4C(=S)N(c5cnc(C#N)c(C(F)(F)F)c5)C(=O)C4(C)C)cc3)cc2)C(C)(C)C)cc1` [Example 386], the DC50 under setting [1] was less than 50 nM. Further, under setting [2], the Dmax was more than 71%. Take `Cc1ncsc1-c1ccc(CNC(=O)[C@@H]2C[C@@H](O)CN2C(=O)[C@@H](NC(=O)COCCCOc2ccc(C(=O)N[C@H]3C(C)(C)[C@H](Oc4ccc(C#N)c(Cl)c4)C3(C)C)cc2)C(C)(C)C)cc1` [Example 387]: the Dmax under setting [2] was less than 25%. With `Cc1ncsc1-c1ccc([C@H](C)NC(=O)[C@@H]2C[C@@H](O)CN2C(=O)[C@@H](NC(=O)COCC#CCOc2ccc(C(=O)N[C@H]3C(C)(C)[C@H](Oc4ccc(C#N)c(Cl)c4)C3(C)C)cc2)C(C)(C)C)cc1` [Example 388], under setting [1], the DC50 is less than 50 nM. Under setting [2], the maximal degradation (Dmax) was more than 71%.

`Cc1ncoc1-c1ccc([C@H](C)NC(=O)[C@@H]2C[C@@H](O)CN2C(=O)[C@@H](NC(=O)COCCCCNc2ccc(-c3ccc(N4C(=S)N(c5cnc(C#N)c(C(F)(F)F)c5)C(=O)C4(C)C)cc3)cc2)C(C)(C)C)cc1` [Example 390]: the 50% degradation concentration (DC50) under setting [1] is less than 50 nM. Also, the Dmax under setting [2] is 51 to 70%. In the case of `Cc1ncsc1-c1ccc(CNC(=O)[C@@H]2C[C@@H](O)CN2C(=O)[C@@H](NC(=O)COCCCCNc2ccc(-c3ccc(N4C(=S)N(c5cnc(C#N)c(C(F)(F)F)c5)C(=O)C4(C)C)cc3)cc2)C(C)(C)C)cc1` [Example 391], under setting [1], the DC50 is less than 50 nM. For the same compound, the Dmax under setting [2] was in the range of 51 to 70%. With `Cc1ncsc1-c1ccc(CNC(=O)[C@@H]2C[C@@H](O)CN2C(=O)[C@@H](NC(=O)CNC(=O)CCCOc2ccc(C(=O)N[C@H]3C(C)(C)[C@H](Oc4ccc(C#N)c(Cl)c4)C3(C)C)cc2)C(C)(C)C)cc1` [Example 393], under setting [1], the DC50 is less than 50 nM. The Dmax under setting [2] fell in the range of 51 to 70%. Consider `Cc1ncsc1-c1ccc(CNC(=O)[C@@H]2C[C@@H](O)CN2C(=O)C(C(C)C)n2cccc(OCCCCOc3ccc(-c4ccc(N5C(=S)N(c6ccc(C#N)c(C(F)(F)F)c6)C(=O)C5(C)C)cc4)cc3)c2=O)cc1` (stereo partly drawn) [Example 395], for which, under “VCaP, read-out: VCaP Dmax (%)”, the greatest degradation seen (Dmax) is less than 25%.
